Assay results as given in ChEMBL document CHEMBL1909046, “DrugMatrix in vitro pharmacology data”.

How the values were obtained:
[1] = target: T1, C-C chemokine receptor type 4 (Homo sapiens, UniProt P51679); assay type: cell membranes, Membrane; settings: chem-1; note: in other assays of this panel Not Active means under 50% inhibition at 10 µM
T1 sequence (P51679 whole entry): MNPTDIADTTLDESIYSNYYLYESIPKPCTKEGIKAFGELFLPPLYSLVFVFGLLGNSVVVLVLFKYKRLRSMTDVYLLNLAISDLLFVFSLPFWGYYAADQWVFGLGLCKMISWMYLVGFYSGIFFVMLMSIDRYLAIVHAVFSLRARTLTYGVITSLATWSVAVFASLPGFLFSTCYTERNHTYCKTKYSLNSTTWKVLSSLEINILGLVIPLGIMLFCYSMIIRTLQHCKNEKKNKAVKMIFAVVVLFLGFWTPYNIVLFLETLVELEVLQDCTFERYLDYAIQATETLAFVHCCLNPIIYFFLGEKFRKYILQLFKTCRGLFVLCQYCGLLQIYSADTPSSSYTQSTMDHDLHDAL

[2] = target: Melanocortin receptor 4 (Homo sapiens, UniProt P32245); assay type: cell membranes, Membrane; settings: hek293; note: in other assays of this panel Not Active means under 50% inhibition at 10 µM
Sequence of Melanocortin receptor 4 (P32245 whole entry): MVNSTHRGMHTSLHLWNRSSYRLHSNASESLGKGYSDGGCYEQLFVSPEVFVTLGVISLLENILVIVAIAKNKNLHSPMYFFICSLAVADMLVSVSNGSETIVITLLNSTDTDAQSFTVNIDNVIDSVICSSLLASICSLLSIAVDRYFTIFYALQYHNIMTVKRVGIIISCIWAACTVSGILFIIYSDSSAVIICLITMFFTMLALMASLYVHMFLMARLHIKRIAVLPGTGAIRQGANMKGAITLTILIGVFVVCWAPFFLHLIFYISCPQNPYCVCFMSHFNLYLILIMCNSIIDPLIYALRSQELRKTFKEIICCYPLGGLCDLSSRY

[3] = DRUGMATRIX: Serotonin (5-Hydroxytryptamine) 5-HT3 radioligand binding (ligand: [3H] GR-65630); assay type: cell membranes, Membrane; settings: hek293; Not Active = under 50% inhibition at 10 µM
[4] = target: Glycine receptor (Rattus norvegicus, UniProt P22771+P24524+P07727+P20781); assay type: cell membranes, Wistar, Spinal cord, Membrane; note: in other assays of this panel Not Active means under 50% inhibition at 10 µM
[5] = target: cGMP-specific 3',5'-cyclic phosphodiesterase (Homo sapiens, UniProt O76074); assay: DRUGMATRIX: Phosphodiesterase PDE5 enzyme inhibition (substrate: [3H]cGMP + cGMP); assay type: tissue-based, Platelet; settings: platelet; Not Active = under 50% inhibition at 10 µM
[6] = target: Cytochrome P450 2C19 (Homo sapiens, UniProt P33261); settings: bti-tn-5b1-4; note: in other assays of this panel Not Active means under 50% inhibition at 10 µM
Sequence of Cytochrome P450 2C19 (P33261 whole entry): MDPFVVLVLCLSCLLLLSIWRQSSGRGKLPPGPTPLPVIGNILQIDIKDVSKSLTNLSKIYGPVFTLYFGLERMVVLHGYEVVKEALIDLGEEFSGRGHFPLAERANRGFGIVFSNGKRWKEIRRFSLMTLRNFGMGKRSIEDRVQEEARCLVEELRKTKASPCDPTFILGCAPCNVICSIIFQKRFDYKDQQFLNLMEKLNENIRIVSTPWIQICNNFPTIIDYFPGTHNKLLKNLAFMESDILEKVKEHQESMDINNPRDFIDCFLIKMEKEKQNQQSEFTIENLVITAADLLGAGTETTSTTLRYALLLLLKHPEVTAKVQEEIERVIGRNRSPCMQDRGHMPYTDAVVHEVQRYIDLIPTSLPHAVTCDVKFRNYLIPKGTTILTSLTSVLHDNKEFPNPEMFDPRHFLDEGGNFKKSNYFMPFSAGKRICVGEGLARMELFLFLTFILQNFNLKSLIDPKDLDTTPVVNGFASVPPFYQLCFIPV

[7] = target: Receptor tyrosine-protein kinase erbB-2 (Homo sapiens, UniProt P04626); assay: biochemical; assay type: cell-based, Insect cells; settings: insect cells
Sequence of Receptor tyrosine-protein kinase erbB-2 (P04626 whole entry): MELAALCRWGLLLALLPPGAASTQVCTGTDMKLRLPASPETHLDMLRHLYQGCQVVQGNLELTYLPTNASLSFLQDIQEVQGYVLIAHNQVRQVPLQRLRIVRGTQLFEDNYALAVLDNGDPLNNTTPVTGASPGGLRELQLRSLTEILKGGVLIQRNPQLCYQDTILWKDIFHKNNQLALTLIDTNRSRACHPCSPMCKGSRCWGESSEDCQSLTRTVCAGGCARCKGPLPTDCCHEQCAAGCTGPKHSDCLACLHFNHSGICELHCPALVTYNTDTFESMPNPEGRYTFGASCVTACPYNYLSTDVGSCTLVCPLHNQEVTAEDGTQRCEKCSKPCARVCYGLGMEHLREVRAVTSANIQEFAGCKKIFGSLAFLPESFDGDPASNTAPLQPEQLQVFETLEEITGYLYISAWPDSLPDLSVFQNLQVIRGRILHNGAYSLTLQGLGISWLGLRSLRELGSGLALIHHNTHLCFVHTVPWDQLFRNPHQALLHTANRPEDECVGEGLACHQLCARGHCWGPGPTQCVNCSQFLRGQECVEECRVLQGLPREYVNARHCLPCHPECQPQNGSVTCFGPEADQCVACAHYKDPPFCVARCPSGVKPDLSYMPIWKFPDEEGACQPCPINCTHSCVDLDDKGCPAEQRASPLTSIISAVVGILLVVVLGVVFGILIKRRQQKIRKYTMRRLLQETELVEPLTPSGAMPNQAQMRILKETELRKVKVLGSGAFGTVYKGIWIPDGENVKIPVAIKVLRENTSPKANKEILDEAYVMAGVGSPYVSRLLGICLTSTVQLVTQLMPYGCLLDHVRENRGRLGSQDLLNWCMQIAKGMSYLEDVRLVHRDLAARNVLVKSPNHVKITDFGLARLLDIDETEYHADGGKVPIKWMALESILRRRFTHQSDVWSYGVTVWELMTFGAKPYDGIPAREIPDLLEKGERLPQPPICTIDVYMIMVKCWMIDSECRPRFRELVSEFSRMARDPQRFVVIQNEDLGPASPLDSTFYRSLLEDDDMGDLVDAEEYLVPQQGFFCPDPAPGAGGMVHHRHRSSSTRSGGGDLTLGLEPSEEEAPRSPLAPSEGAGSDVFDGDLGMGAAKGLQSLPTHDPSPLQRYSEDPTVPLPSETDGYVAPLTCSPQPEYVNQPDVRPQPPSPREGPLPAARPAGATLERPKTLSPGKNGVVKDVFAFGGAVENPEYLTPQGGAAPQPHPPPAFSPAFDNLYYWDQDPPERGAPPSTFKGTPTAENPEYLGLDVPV

[8] = target: C-C chemokine receptor type 5 (Homo sapiens, UniProt P51681); assay type: cell membranes, Membrane; settings: hek293; note: in other assays of this panel Not Active means under 50% inhibition at 10 µM
Sequence of C-C chemokine receptor type 5 (P51681 whole entry): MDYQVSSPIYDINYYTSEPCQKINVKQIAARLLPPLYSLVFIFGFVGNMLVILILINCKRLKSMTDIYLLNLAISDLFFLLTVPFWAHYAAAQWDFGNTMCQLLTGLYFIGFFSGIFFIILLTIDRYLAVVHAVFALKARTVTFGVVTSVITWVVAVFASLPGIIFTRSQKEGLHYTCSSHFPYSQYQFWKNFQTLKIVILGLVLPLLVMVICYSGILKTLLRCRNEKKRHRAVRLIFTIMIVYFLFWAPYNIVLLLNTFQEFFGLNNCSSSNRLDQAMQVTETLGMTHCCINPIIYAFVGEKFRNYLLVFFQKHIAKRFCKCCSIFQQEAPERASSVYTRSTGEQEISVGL

CCCCC1=NC2(CCCC2)C(=O)N1Cc1ccc(-c2ccccc2-c2nnn[nH]2)cc1 [IRBESARTAN]
Not Active: IC50 [1] | IC50 [2] | IC50 [3] | Ki [3] | IC50 [4] | IC50 [5] | IC50 [6] | Ki [6] | IC50 [7] | IC50 [8]

CN1CCC(=C2c3ccccc3CC(=O)c3sccc32)CC1 [KETOTIFEN]
Not Active: IC50 [1] | IC50 [2] | IC50 [3] | Ki [3] | IC50 [4] | IC50 [5] | IC50 [6] | Ki [6] | IC50 [7] | IC50 [8]

C[N+](C)(C)C[C@H](O)CC(=O)[O-] [LEVOCARNITINE]
Not Active: IC50 [1] | IC50 [2] | IC50 [3] | Ki [3] | IC50 [4] | IC50 [5] | IC50 [6] | Ki [6] | IC50 [7] | IC50 [8]

C[C@H]1COc2c(N3CCN(C)CC3)c(F)cc3c(=O)c(C(=O)O)cn1c23.C[C@H]1COc2c(N3CCN(C)CC3)c(F)cc3c(=O)c(C(=O)O)cn1c23.O [LEVOFLOXACIN]
Not Active: IC50 [1] | IC50 [2] | IC50 [3] | Ki [3] | IC50 [4] | IC50 [5] | IC50 [6] | Ki [6] | IC50 [7] | IC50 [8]

CCn1cc(C(=O)O)c(=O)c2cc(F)c(N3CCNC(C)C3)c(F)c21 (stereo not given) [LOMEFLOXACIN]
Not Active: IC50 [1] | IC50 [2] | IC50 [3] | Ki [3] | IC50 [4] | IC50 [5] | IC50 [6] | Ki [6] | IC50 [7] | IC50 [8]

CN1CCCC(CN2c3ccccc3Sc3ccccc32)C1 (stereo not given) [MEPAZINE]
Not Active: IC50 [1] | IC50 [2] | IC50 [3] | Ki [3] | IC50 [4] | IC50 [5] | IC50 [6] | Ki [6] | IC50 [7] | IC50 [8]

Cc1cccc(C)c1NC(=O)C1CCCCN1C (stereo not given) [MEPIVACAINE]
Not Active: IC50 [1] | IC50 [2] | IC50 [3] | Ki [3] | IC50 [4] | IC50 [5] | IC50 [6] | Ki [6] | IC50 [7] | IC50 [8]

CN(C)C(=N)NC(=N)N [METFORMIN]
Not Active: IC50 [1] | IC50 [2] | IC50 [3] | Ki [3] | IC50 [4] | IC50 [5] | IC50 [6] | Ki [6] | IC50 [7] | IC50 [8]

CC(C)(C)NCC(O)COc1cccc2c1CC(O)C(O)C2 (stereo not given) [NADOLOL]
Not Active: IC50 [1] | IC50 [2] | IC50 [3] | Ki [3] | IC50 [4] | IC50 [5] | IC50 [6] | Ki [6] | IC50 [7] | IC50 [8]

C[C@]12CC[C@H]3[C@@H](CCC4=CC(=O)CC[C@@H]43)[C@@H]1CC[C@@H]2O [NANDROLONE]
Not Active: IC50 [1] | IC50 [2] | IC50 [3] | Ki [3] | IC50 [4] | IC50 [5] | IC50 [6] | Ki [6] | IC50 [7] | IC50 [8]

CN(C)C(=O)Oc1cccc([N+](C)(C)C)c1.[Br-] [NEOSTIGMINE BROMIDE]
Not Active: IC50 [1] | IC50 [2] | IC50 [3] | Ki [3] | IC50 [4] | IC50 [5] | IC50 [6] | Ki [6] | IC50 [7] | IC50 [8]

NC(=O)c1cccnc1 [NIACINAMIDE]
Not Active: IC50 [1] | IC50 [2] | IC50 [3] | Ki [3] | IC50 [4] | IC50 [5] | IC50 [6] | Ki [6] | IC50 [7] | IC50 [8]

CS(=O)(=O)Nc1ccc([N+](=O)[O-])cc1Oc1ccccc1 [NIMESULIDE]
Not Active: IC50 [1] | IC50 [2] | IC50 [3] | Ki [3] | IC50 [4] | IC50 [5] | IC50 [6] | Ki [6] | IC50 [7] | IC50 [8]

CN1C(=O)CN=C(c2ccccc2)c2cc([N+](=O)[O-])ccc21 [NIMETAZEPAM]
Not Active: IC50 [1] | IC50 [2] | IC50 [3] | Ki [3] | IC50 [4] | IC50 [5] | IC50 [6] | Ki [6] | IC50 [7] | IC50 [8]

C[C@@H]1O[C@@H](O[C@H]2C[C@@H](O)[C@]3(CO)[C@H]4[C@H](O)C[C@]5(C)[C@@H](C6=CC(=O)OC6)CC[C@]5(O)[C@@H]4CC[C@]3(O)C2)[C@H](O)[C@H](O)[C@H]1O [OUABAIN]
Not Active: IC50 [1] | IC50 [2] | IC50 [3] | Ki [3] | IC50 [4] | IC50 [5] | IC50 [6] | Ki [6] | IC50 [7] | IC50 [8]

NC(=O)N1c2ccccc2CC(=O)c2ccccc21 [OXCARBAZEPINE]
Not Active: IC50 [1] | IC50 [2] | IC50 [3] | Ki [3] | IC50 [4] | IC50 [5] | IC50 [6] | Ki [6] | IC50 [7] | IC50 [8]

COc1ccnc(C[S+]([O-])c2nc3ccc(OC(F)F)cc3[nH]2)c1OC (stereo not given) [PANTOPRAZOLE]
Not Active: IC50 [1] | IC50 [2] | IC50 [3] | Ki [3] | IC50 [4] | IC50 [5] | IC50 [6] | Ki [6] | IC50 [7] | IC50 [8]

N=C(N)c1ccc(OCCCCCOc2ccc(C(=N)N)cc2)cc1 [PENTAMIDINE]
Not Active: IC50 [1] | IC50 [2] | IC50 [3] | Ki [3] | IC50 [4] | IC50 [5] | IC50 [6] | Ki [6] | IC50 [7] | IC50 [8]

CCc1ccc(CCOc2ccc(CC3SC(=O)NC3=O)cc2)nc1 (stereo not given) [PIOGLITAZONE]
Not Active: IC50 [1] | IC50 [2] | IC50 [3] | Ki [3] | IC50 [4] | IC50 [5] | IC50 [6] | Ki [6] | IC50 [7] | IC50 [8]
